The source of these data is US20250223303A1, “TRICYCLIC BORONIC ACID DERIVATIVE, AND PREPARATION METHOD THEREFOR AND APPLICATION THEREOF” (priority 2021, published 2025).

One assay deals with T1, IMP-1 (Serratia marcescens, UniProt P52699).
T1 construct: purchased GenScript Biotech Co., Ltd
Kind of assay: Enzyme activity test (FC5 fluorescent substrate), IMP-1. In kind it is biochemical. The settings on record: enzyme 20 pM, substrate FC5 15 μM. The method, then:
(§1) Compound stock solution: the compound was prepared as a 50 mM DMSO stock solution. […] After aliquoting, the compound stock solutions were stored at −20° C.
(§2) Preparation and storage of antibiotic substrate stock solution: antibiotic fluorescent substrate FC5 was synthesized internally and prepared as a 2 mM stock solution, which was stored at −20° C. after aliquoting.
(§3) Storage of β-lactamases: each […] was synthesized by GenScript Biotech Co., Ltd., and stored at −80° C. after aliquoting to avoid repeated freezing and thawing.
(§4) Preparation of enzyme activity reaction buffer: SBL buffer: PBS pH 7.4, 0.01% (v/v) Triton X-100; MBL buffer: 50 Mm HEPES in PBS pH 7.2, 1 μM ZnSO4, 1 μg/mL BSA, 0.010% v/v Triton X-100
(§5) a) The compound to be tested and buffer were taken out and warmed to room temperature.
(§6) b) Each compound was diluted with DMSO and buffer to the initial experimental concentration (Table 2), and then the compound was diluted 3-fold for a total of 10 concentrations.
(§7) c) Diluted compounds were added to wells 1 to 20 of a 384-well black plate at 2 replicate wells per concentration, 5 μL per well. 5 µL of DMSO was added to wells 21 to 24.
(§8) d) Each enzyme was diluted to the experimental concentration (Table 2) in SBL and MBL buffers, and finally 35 μL/well was added, with a total of 22 wells. 35 μL buffer was added to wells 23 to 24. Wells 21 to well 22 served as the maximum test values (Max), while wells 23 to 24 were designated as the minimum test values (Min).
(§9) e) The 384-well plate was centrifuged quickly and incubated for 10 minutes at room temperature.
(§10) f) The antibiotic substrate FC5 was diluted in buffer to the experimental concentration of each enzyme (Table 2).
(§11) g) The incubated 384-well plate was taken out and FC-5 was added to wells […]. The 384-well plate was centrifuged rapidly and promptly transferred to a microplate reader for reading.
(§12) h) The fluorescence intensity was measured at 355 nm excitation light/460 nm emission light in the microplate reader, and the fluorescence intensity was measured every three minutes for a total of 10 measurements.
(§13) Initial velocity of enzyme reaction V: Subtract the background reading (Min wells) without enzyme from each fluorescence intensity reading, and then perform on a linear regression analysis on each compound concentration group. The slope is the initial velocity of enzyme reaction (V) at each compound concentration.
(§14) Dose-effect curve and IC50 calculation of compounds: The initial velocity of enzyme reaction under the effect of each concentration of compounds was subjected to nonlinear regression fitting. The IC50 (half-maximal inhibitory concentration) of each compound was calculated using the formula […] (Vi: the initial velocity of enzyme reaction at each compound concentration; V0: initial velocity of enzyme reaction without the compound (Max wells). The software used was Graphpad prism 8.

A further assay addresses T2, VIM-1 (Pseudomonas aeruginosa, UniProt A0A0F7KYQ8).
T2 construct: purchased GenScript Biotech Co., Ltd
The assay is described as follows: Enzyme activity test (FC5 fluorescent substrate), VIM-1. In kind it is biochemical. Conditions: enzyme 70 pM, substrate FC5 10 μM. The method, then:
as §1, §2, §3, §4, §5, §6, §7, §8, §9, §10, §11, §12, §13, §14

Another assay concerns the target T3, VIM-2 (Escherichia coli, UniProt Q5U7L7).
T3 construct: purchased GenScript Biotech Co., Ltd
The assay is described as follows: Enzyme activity test (FC5 fluorescent substrate), VIM-2. Type of assay: biochemical. The settings on record: enzyme 25 pM, substrate FC5 20 μM. As to the method: as §1, §2, §3, §4, §5, §6, §7, §8, §9, §10, §11, §12, §13, §14

In another assay the target is T4, KPC-2 (Klebsiella pneumoniae, UniProt Q9F663).
T4 construct: purchased GenScript Biotech Co., Ltd
T4 sequence (Q9F663 25-293 limits assumed): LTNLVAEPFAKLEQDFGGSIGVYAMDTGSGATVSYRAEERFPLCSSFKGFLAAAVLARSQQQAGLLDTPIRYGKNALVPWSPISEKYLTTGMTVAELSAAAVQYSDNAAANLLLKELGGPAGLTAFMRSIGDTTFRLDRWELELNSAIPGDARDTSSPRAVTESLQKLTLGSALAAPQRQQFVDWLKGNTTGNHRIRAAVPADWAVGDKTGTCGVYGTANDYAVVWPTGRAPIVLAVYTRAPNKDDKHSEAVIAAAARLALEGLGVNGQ
Kind of assay: Enzyme activity test (FC5 fluorescent substrate), KPC-2. In kind it is biochemical. The settings on record: enzyme 45 pM, substrate FC5 25 μM. As to the method:
as §1, §2, §3, §4, §5, §6, §7, §8, §9, §10, §11, §12, §13, §14

The next assay concerns the target T5, CTX-M-15 (Escherichia coli, UniProt Q9EXV5).
T5 construct: purchased GenScript Biotech Co., Ltd
The assay is described as follows: Enzyme activity test (FC5 fluorescent substrate), CTX-M-15. In kind it is biochemical. Conditions: enzyme 45 pM, substrate FC5 50 μM. As to the method: as §1, §2, §3, §4, §5, §6, §7, §8, §9, §10, §11, §12, §13, §14

The target of a further assay is Ampc (UniProt P24735). Kind of assay: Enzyme activity test (FC5 fluorescent substrate), AmpC. Conditions: enzyme 25 pM, substrate FC5 15 μM. In kind it is biochemical. As to the method: as §1, §2, §3, §4, §5, §6, §7, §8, §9, §10, §11, §12, §13, §14
The next assay deals with T6, OXA-10 (Pseudomonas aeruginosa, UniProt P14489).
T6 construct: purchased GenScript Biotech Co., Ltd
T6 sequence (P14489 20-266): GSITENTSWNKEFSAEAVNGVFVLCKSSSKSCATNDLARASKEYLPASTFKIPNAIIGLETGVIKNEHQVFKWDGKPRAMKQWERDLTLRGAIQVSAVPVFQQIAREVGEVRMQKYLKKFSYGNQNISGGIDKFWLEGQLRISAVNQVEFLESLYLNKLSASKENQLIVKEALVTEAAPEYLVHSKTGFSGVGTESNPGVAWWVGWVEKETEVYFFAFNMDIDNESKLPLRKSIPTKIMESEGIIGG
The assay is described as follows: Enzyme activity test (FC5 fluorescent substrate), OXA-10. Conditions: enzyme 350 pM, substrate FC5 50 μM. Type of assay: biochemical. As to the method:
as §1, §2, §3, §4, §5, §6, §7, §8, §9, §10, §11, §12, §13, §14

In the next assay the target is T7, OXA-23 (Acinetobacter baumannii, UniProt Q9L4P2).
T7 construct: purchased GenScript Biotech Co., Ltd
T7 sequence (Q9L4P2 18-273): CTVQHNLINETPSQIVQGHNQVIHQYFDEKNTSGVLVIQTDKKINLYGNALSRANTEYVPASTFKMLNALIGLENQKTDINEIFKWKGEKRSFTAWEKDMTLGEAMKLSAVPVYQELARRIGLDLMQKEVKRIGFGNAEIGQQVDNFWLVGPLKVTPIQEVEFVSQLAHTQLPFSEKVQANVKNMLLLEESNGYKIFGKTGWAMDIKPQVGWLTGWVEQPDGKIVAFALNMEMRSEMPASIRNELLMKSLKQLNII
The assay is described as follows: Enzyme activity test (FC5 fluorescent substrate), OXA-23. Type of assay: biochemical. Conditions: enzyme 650 pM, substrate FC5 50 μM. The method, then: as §1, §2, §3, §4, §5, §6, §7, §8, §9, §10, §11, §12, §13, §14

Assay [1] concerns Klebsiella pneumoniae ATCC BAA-2470. Kind of assay: MIC test of compounds in combination with antibiotics, Klebsiella pneumoniae ATCC BAA-2470. Conditions: Klebsiella pneumoniae ATCC BAA-2470 NDM-1.
The subject of assay [2] is Acinetobacter baumannii WX-AB005. Kind of assay: MIC test of compounds in combination with antibiotics, Acinetobacter baumannii WX-AB005. The settings on record: Acinetobacter baumannii WX-AB005.
Protocol: (§15) 2-Fold gradient dilution of antibiotics: 300 μL of CAMHVIB medium was added to columns 2-12 of a 96-deep well plate. In column 1, 24 μL of antibiotic stock solution and 576 µL of CAMHB medium were added and mixed well, with a concentration of 512 μg/mL. 300 µL of antibiotic solution was transferred from the column 1 to the second column and mixed well. The process was repeated until column 11, and the column 12 was a blank control.
(§16) Dilution of combined compounds: the compound was diluted 400-fold to 32 μg/ml with CAMHB medium.
(§17) Working solution aliquoting: 25 μL of antibiotics was aliquoted into the 96-U bottom plate with a pipette, and 25 μL of combined compound was added to each well. If antibiotics were used alone, 25 μL of CAMHB medium was added.
(§18) Inoculum solution preparation: 5-6 single colonies were selected from the plate and suspended in normal saline. The bacterial suspension was adjusted to 0.2 (i.e., 0.5 McFarland turbidity, with a bacterial concentration was about 1 to 2×10^8 CFU/mL) with a turbidity meter. The bacterial suspension was diluted 100-fold with CAMHB medium for later use.
(§19) Inoculation: 50 μL of inoculum solution was transferred to the above 50 μL compound plate with a pipette.
(§20) Culture: The 96-U bottom plate was placed in an incubator at 37° C. for 18 to 20 h.
Assay [3] concerns Acinetobacter baumannii WX-AB013. The assay is described as follows: MIC test of compounds in combination with antibiotics, Acinetobacter baumannii WX-AB013. The settings on record: Acinetobacter baumannii WX-AB013.
Protocol: as §15, §16, §17, §18, §19, §20
The test system of assay [4] is Acinetobacter baumannii ARLG-1791 OXA-23. Kind of assay: MIC test of compounds in combination with antibiotics, Acinetobacter baumannii ARLG-1791. The settings on record: Acinetobacter baumannii ARLG-1791 OXA-23.
Protocol: as §15, §16, §17, §18, §19, §20
The subject of assay [5] is Acinetobacter baumannii ARLG-1809 OXA-23. Kind of assay: MIC test of compounds in combination with antibiotics, Acinetobacter baumannii ARLG-1809. The settings on record: Acinetobacter baumannii ARLG-1809 OXA-23.
Protocol: as §15, §16, §17, §18, §19, §20
In assay [6] the test system is Acinetobacter baumannii ARLG-1853 OXA-23. The assay is described as follows: MIC test of compounds in combination with antibiotics, Acinetobacter baumannii ARLG-1853. Conditions: Acinetobacter baumannii ARLG-1853 OXA-23.
Protocol: as §15, §16, §17, §18, §19, §20
The test system of assay [7] is carbapenem-resistant Acinetobacter baumannii strains. The assay is described as follows: MIC test of compounds in combination with antibiotics, resistant Acinetobacter baumannii strains. The settings on record: all resistant strains of Acinetobacter baumannii.

T1 sequence (P52699 19-246 limits assumed): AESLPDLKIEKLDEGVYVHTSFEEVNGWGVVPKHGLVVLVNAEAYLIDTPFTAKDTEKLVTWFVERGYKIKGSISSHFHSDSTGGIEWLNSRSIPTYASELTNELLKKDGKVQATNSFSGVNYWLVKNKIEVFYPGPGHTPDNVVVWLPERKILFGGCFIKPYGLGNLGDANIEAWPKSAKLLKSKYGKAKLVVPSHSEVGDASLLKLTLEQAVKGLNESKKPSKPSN
T5 sequence (Q9EXV5 entry or part of it): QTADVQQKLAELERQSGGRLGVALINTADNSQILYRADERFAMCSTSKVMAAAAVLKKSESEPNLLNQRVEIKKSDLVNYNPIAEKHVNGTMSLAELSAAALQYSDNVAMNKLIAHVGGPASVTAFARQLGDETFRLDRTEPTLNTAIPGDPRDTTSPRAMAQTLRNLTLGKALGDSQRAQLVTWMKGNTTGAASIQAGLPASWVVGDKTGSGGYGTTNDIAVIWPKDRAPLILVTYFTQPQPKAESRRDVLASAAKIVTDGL

`NCCNC1CCC(CC(=O)N[C@H]2Cc3cccc(C(=O)O)c3OB2O)CC1` (stereo partly drawn) [VNRX-5133, reference compound]: the IC50 against IMP-1 is above 10000 nM; against VIM-1, 33 nM; against VIM-2, 4.4 nM; on KPC-2, 64.2 nM; on CTX-M-15, 12.4 nM; at Ampc, 857 nM. Also, the values for the IC50 against OXA-10 and against OXA-23 were 463 nM and above 10000 nM, respectively. In addition, the MIC in [1] (Cefepime + compound (8 μg/mL)) turned out to be 1 µg/mL; in [1] (Meropenem + compound (8 μg/mL)), 1 µg/mL; in assay [2] (Cefepime + compound (8 μg/mL)), 128 µg/mL; in [2] (Meropenem + compound (8 μg/mL)) it was 128 µg/mL; in assay [3] (Cefepime + compound (8 μg/mL)), 64 µg/mL; in assay [3] (Meropenem + compound (8 μg/mL)), 128 µg/mL. The MIC came to 16 µg/mL in [4] (Cefepime + compound (8 μg/mL)); 128 µg/mL in [4] (Meropenem + compound (8 μg/mL)); 32 µg/mL in assay [5] (Cefepime + compound (8 μg/mL)); 128 µg/mL in assay [5] (Meropenem + compound (8 μg/mL)); 32 µg/mL in assay [6] (Cefepime + compound (8 μg/mL)); 128 µg/mL in assay [6] (Meropenem + compound (8 μg/mL)). In addition, the MIC of the combination with cefepime/meropenem in assay [7] was above 32 µg/mL.

The term IC50 denotes the concentration that inhibits the measured activity by half. High values mean lower potency, low ones higher potency. For orientation: MIC means the least concentration at which growth counts as inhibited.
